Laboratory results published in ChEMBL document CHEMBL1201862, “PubChem BioAssay data set” (2004).
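A five-concentration, 48-hour dose response in 96-well plates underlies each endpoint, interpolated linearly between surrounding concentrations. Here, GI50 denotes the concentration required for 50% inhibition of growth.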 Activity calls are given as the source filed them. Cut-off read from the data, not from the text of the source: active = GI50 up to about 1.1 µM and inactive = higher.

Key:
Test in all cases: NCI anticancer screen, dose series, 48 h
TK-10 = system: TK-10
SNB-19 = system: SNB-19
RXF 393 = system: RXF 393
MOLT-4 = system: MOLT-4
M19-MEL = system: M19-MEL
K562 = system: K562
Malme-3M = system: Malme-3M
SF-539 = system: SF-539
ACHN = system: ACHN
SF-295 = system: SF-295
HCT-116 = system: HCT-116
NCI-H522 = system: NCI-H522
M14 = system: M14
UO-31 = system: UO-31
MCF7 = system: MCF7
SK-MEL-2 = system: SK-MEL-2
HOP-92 = system: HOP-92
MDA-N = system: MDA-N
DU-145 = system: DU-145
A498 = system: A498

For `C[C@]12CC[C@@H]3c4ccccc4CC[C@H]3[C@@H]1CC[C@@H]2O`, the GI50 (TK-10) was > 100 µM (inactive), the GI50 (SNB-19) was > 100 µM (inactive) and the GI50 (RXF 393) was 27.6 µM (inactive). The GI50 (MOLT-4) was 45.5 µM (inactive), the GI50 (M19-MEL) was 78 µM (inactive) and the GI50 (K562) was 32.1 µM (inactive). For the same compound, the GI50 (Malme-3M) was 44.2 µM (inactive), the GI50 (SF-539) was 43.1 µM (inactive) and the GI50 (ACHN) was > 100 µM (inactive). For the same compound, the GI50 (SF-295) was > 100 µM (inactive), the GI50 (HCT-116) was > 100 µM (inactive) and the GI50 (NCI-H522) was 49.2 µM (inactive). For the same compound, the GI50 (M14) was > 100 µM (inactive) and the GI50 (UO-31) was 39.7 µM (inactive).
In the case of `Cc1c2oc3c(C)cc(F)c(C(=O)NC4C(=O)NC(C(C)C)C(=O)N5CCCC5C(=O)N(C)CC(=O)N(C)C(C(C)C)C(=O)OC4C)c3nc-2c(C(=O)NC2C(=O)NC(C(C)C)C(=O)N3CCCC3C(=O)N(C)CC(=O)N(C)C(C(C)C)C(=O)OC2C)c(N)c1=O` (stereo unspecified), the GI50 (TK-10) is reported as 0.224 µM (active), the GI50 (SNB-19) is reported as 0.00771 µM (active) and the GI50 (RXF 393) is reported as 0.106 µM (active). For the same compound, the GI50 (MCF7) was < 0.001 µM (active), the GI50 (SK-MEL-2) was 0.01 µM (active) and the GI50 (MOLT-4) was < 0.001 µM (active). The GI50 (HOP-92) was 0.154 µM (active), the GI50 (K562) was < 0.001 µM (active) and the GI50 (Malme-3M) was 0.00149 µM (active). The GI50 (SF-539) was 0.0681 µM (active), the GI50 (ACHN) was 0.0832 µM (active) and the GI50 (MDA-N) was 0.0024 µM (active). The GI50 (DU-145) was 0.115 µM (active), the GI50 (SF-295) was 0.00708 µM (active) and the GI50 (HCT-116) was 0.01 µM (active). For the same compound, the GI50 (NCI-H522) was 0.00188 µM (active), the GI50 (A498) was 0.161 µM (active) and the GI50 (M14) was 0.0826 µM (active). For the same compound, the GI50 (UO-31) was 0.521 µM (active).
`Cc1ccnc2c1c(=O)c1ccccc1n2C` was tested, and the GI50 (TK-10) was 26.3 µM (inactive), the GI50 (SNB-19) was 15.4 µM (inactive) and the GI50 (RXF 393) was 33.3 µM (inactive). The GI50 (MCF7) was 32.9 µM (inactive), the GI50 (SK-MEL-2) was 52.1 µM (inactive) and the GI50 (MOLT-4) was 23.9 µM (inactive). For the same compound, the GI50 (HOP-92) was 49.7 µM (inactive), the GI50 (K562) was 50.7 µM (inactive) and the GI50 (Malme-3M) was 29.6 µM (inactive). For the same compound, the GI50 (SF-539) was 29.9 µM (inactive), the GI50 (ACHN) was 27.7 µM (inactive) and the GI50 (MDA-N) was 34.3 µM (inactive). For the same compound, the GI50 (DU-145) was 52.2 µM (inactive), the GI50 (SF-295) was 37.5 µM (inactive) and the GI50 (HCT-116) was 39.4 µM (inactive). The GI50 (NCI-H522) was 19.1 µM (inactive), the GI50 (A498) was 31.8 µM (inactive) and the GI50 (M14) was 39 µM (inactive). For the same compound, the GI50 (UO-31) was 12.9 µM (inactive).
For `O=c1sc2c(s1)-c1sc(=O)sc1SS2`, the GI50 (TK-10) was > 52.6 µM (inactive), the GI50 (SNB-19) was > 100 µM (inactive) and the GI50 (RXF 393) was > 100 µM (inactive). The GI50 (MCF7) was > 100 µM (inactive), the GI50 (SK-MEL-2) was > 100 µM (inactive) and the GI50 (MOLT-4) was > 61 µM (inactive). For the same compound, the GI50 (HOP-92) was > 100 µM (inactive), the GI50 (K562) was 55.5 µM (inactive) and the GI50 (Malme-3M) was > 100 µM (inactive). The GI50 (SF-539) was 41.5 µM (inactive), the GI50 (ACHN) was > 100 µM (inactive) and the GI50 (MDA-N) was > 100 µM (inactive). For the same compound, the GI50 (DU-145) was > 54 µM (inactive), the GI50 (SF-295) was > 100 µM (inactive) and the GI50 (HCT-116) was > 100 µM (inactive). The GI50 (NCI-H522) was > 91.4 µM (inactive), the GI50 (A498) was > 42.9 µM (inactive) and the GI50 (M14) was 48.2 µM (inactive). For the same compound, the GI50 (UO-31) was > 100 µM (inactive).
